Data published in patent US20180305341A1 (RAQUALIA PHARMA INC., priority 2015, published 2018).

Target: T1, human TRPM8 (Homo sapiens, UniProt Q7Z2W7)
T1 construct: expressed in transfected cells
Assay: Menthol-induced Ca2+ influx in HEK293 cells stably expressing human TRPM8
Type: cell-based
Details: 30 microM menthol, read-out: IC50 against TRPM8
Procedure: Measurement of the Menthol-Induced Ca^2+ Influx in HEK293 Cells Stably Expressing Human TRPM8
A cell-based Ca^2+ influx assay using HEK293 cells stably expressing human TRPM8 is used to identify the activity of compounds.
HEK293 cells stably expressing human TRPM8 are grown in T175 flasks at 37° C. in a 5% CO2 humidified incubator to about 80% confluence. Media composition consists of Dulbecco's Modified Eagle Medium (high glucose), 10% fetal calf serum (FCS), 100 units/mL Penicillin, 100 microg/mL Streptomycin and 600 microg/mL Geneticine. At 24 hours prior to assay, cells are seeded in poly-D-lysine coated 384-well plates (BD FALCON) at a density of 30,000 cells per well in culture medium and grown overnight in 5% CO2 at 37° C. On the assay day, growth media is removed and cells are loaded with 0.5 microM Fluo4-AM (Molecular Probes) and 0.005% Pluronic F-127 dissolved in assay buffer (Hank's balanced salt solution (HBSS), 19.4 mM HEPES pH 7.4, 2.5 mM Probenecid) for 1 hour at room temperature. After washing with assay buffer, the cells are preincubated with various concentrations of the compounds for 5 min. The changes in intracellular calcium concentration by addition of 30 microM menthol are monitored by the cell imaging technology by Hamamatsu Photonics Functional Drug Screening System (FDSS).
The IC50 values for compounds of the present invention are determined from 11-point dose-response studies. Curves are generated using the average of duplicate wells for each data point. Finally, the IC50 values are calculated with the best-fit dose curve determined by XLfit (ID Business Solutions Ltd.).

T1 sequence (Q7Z2W7 whole entry): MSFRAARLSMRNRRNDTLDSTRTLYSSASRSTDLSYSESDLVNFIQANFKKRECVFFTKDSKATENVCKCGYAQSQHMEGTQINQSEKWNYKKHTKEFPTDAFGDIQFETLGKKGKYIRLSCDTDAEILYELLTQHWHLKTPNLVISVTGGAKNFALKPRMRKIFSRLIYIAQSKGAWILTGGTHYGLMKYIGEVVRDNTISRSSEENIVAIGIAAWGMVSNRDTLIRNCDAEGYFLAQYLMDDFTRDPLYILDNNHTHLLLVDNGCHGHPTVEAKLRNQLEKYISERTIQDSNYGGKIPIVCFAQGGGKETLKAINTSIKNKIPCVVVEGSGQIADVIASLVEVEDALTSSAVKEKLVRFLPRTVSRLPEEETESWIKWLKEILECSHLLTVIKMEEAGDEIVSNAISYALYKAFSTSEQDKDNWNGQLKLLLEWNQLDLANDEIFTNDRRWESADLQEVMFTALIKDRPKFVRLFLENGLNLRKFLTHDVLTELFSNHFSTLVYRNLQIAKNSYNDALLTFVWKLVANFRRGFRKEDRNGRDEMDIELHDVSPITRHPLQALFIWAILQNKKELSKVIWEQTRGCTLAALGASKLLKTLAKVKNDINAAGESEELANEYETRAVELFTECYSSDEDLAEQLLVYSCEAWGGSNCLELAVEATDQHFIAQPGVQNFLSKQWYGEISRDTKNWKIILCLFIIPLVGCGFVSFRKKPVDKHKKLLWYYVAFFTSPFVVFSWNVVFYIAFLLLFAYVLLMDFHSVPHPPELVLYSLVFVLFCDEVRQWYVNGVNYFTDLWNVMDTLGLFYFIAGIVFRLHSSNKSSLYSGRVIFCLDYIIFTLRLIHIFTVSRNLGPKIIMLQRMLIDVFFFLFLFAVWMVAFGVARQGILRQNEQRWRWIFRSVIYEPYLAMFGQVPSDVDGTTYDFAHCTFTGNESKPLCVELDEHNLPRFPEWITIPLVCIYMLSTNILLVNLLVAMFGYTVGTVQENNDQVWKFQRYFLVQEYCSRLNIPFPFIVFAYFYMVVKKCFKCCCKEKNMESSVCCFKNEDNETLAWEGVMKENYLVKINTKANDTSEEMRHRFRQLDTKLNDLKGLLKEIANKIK

Structure (SMILES) | IC50 [nM]
CC1=NC2(CCC(F)(F)CC2)C(=O)N1CC(=O)c1ccc(Oc2cccnn2)cc1 [Example 1] | < 50
CC1=NC2(CCCCC2)C(=O)N1CC(=O)c1ccc(-n2c(C)nc3ccccc32)cc1 [Example 2, 2-methyl-3-(2-(4-(2-methyl-1H-benzo[d]imidazol-1-yl)phenyl)-2-oxoethyl)-1,3-diazaspiro[4.5]dec-1-en-4-one] | < 50
CCC1=NC2(CCC(F)(F)CC2)C(=O)N1CC(=O)c1ccc(Oc2cccnn2)cc1 [Example 3, 2-ethyl-8,8-difluoro-3-(2-oxo-2-(4-(pyridazin-3-yloxy)phenyl)ethyl)-1,3-diazaspiro[4.5]dec-1-en-4-one] | < 50
CC1=NC2(CCC(F)(F)CC2)C(=O)N1CC(=O)c1ccc(-c2nnccc2C)cc1 [Example 4, 8,8-difluoro-2-methyl-3-(2-(4-(4-methylpyridazin-3-yl)phenyl)-2-oxoethyl)-1,3-diazaspiro[4,5]dec-1-en-4-one] | < 100
CC1=NC2(CCC(F)(F)CC2)C(=O)N1CC(=O)c1ccc(-n2c(C)nc3ccccc32)cc1 [Example 5, 8,8-difluoro-2-methyl-3-(2-(4-(2-methyl-1H-benzo[d]imidazol-1-yl)phenyl)-2-oxoethyl)-1,3-diazaspiro[4.5]dec-1-en-4-one] | < 50
CC1=NC2(CCC(F)(F)CC2)C(=O)N1CC(=O)c1ccc(-n2c(C)nc3cccnc32)cc1 [Example 6, 8,8-difluoro-2-methyl-3-(2-(4-(2-methyl-3H-imidazo[4,5-b]pyridin-3-yl)phenyl)-2-oxoethyl)-1,3-diazaspiro[4.5]dec-1-en-4-one] | < 50
